Test results reported in publication PMC8540265, “Activity of New Synthetic (2-Chloroethylthio)-1,4-naphthoquinones in Prostate Cancer Cells” (Pharmaceuticals, 2021).
Read-outs that look alike come from different tables or passages of the source.

Key:
[1] = tested on: 22Rv1 cells; assay: MTT cytotoxicity test, 22Rv1 cells; format: cell-based, human
Description: (§1) A total of 6000 cells/well were seeded in 96-well plates, incubated overnight, and treated with the drugs in 100 μL/well of the corresponding fresh culture media for 48 h, as previously described. For combinational assays, the cells were pre-treated with the corresponding inhibitor for the indicated time and then co-treated with the tested compounds for 48 h. Then, 10 μL/well of MTT ((3-(4,5-dimethylthiazol-2-yl)-2,5-diphenyltetrazolium bromide) solution was added and the cell viability was measured as previously reported.

[2] = tested on: PNT2 cells; assay: MTT cytotoxicity test, PNT2 cells; format: cell-based, human
Description: as §1

[3] = tested on: 22Rv1 cells
[4] = tested on: 22Rv1 cells; format: cell-based, human
[5] = tested on: PC-3 cells; format: cell-based, human
[6] = Homo sapiens, PNT2, 48 h, MTT, non-cancer prostate cells

Question: With `COc1cc(O)c2c(c1O)C(=O)C(O)=C(CSCCCl)C2=O` [Compound 38, 2-((2-Chloroethylthio)methyl)-3,5,8-trihydroxy-6-methoxy-1,4-naphthoquinone] as the compound, how does the IC50 [1] read?
Answer: Its IC50 is > 100 µM.

Question: And the IC50 [2]?
Answer: The IC50 was > 100 µM.

Question: How did the IC50 [1] turn out when `O=C1C(O)=C(CSCCCl)C(=O)c2c(O)c(Cl)c(Cl)c(O)c21` [Compound 37, 6,7-Dichloro-2-((2-chloroethylthio)methyl)-3,5,8-trihydroxy-1,4-naphthoquinone] was run?
Answer: Its IC50 is 48.6 ± 12.2 µM.

Question: And the “Selectivity Index [IC50(PNT2)/IC50(22Rv1)]” value [1]?
Answer: The value was 0.58.

Question: What about the IC50 [2] of the same compound?
Answer: The IC50 was 28.2 ± 1.04 µM.

Question: How did the “effect on mitochondrial membrane potential (ΔΨm)” value [3] turn out when “2-[2-(3-chlorophenyl)hydrazinylyidene]propanedinitrile [CCCP]” was run?
Answer: The value was “provoked mitochondrial membrane depolarization”.

Question: `COc1ccc(C[C@H]2NC[C@H](O)[C@H]2OC(C)=O)cc1` [Aniso, anisomycin] was tested. Which “effect of pre-treatment with pan-caspase inhibitor zVAD on induced apoptosis” value [4] did it give?
Answer: Its value is “Comparable effects”.

Question: Which IC50 [1] does the source give for `COc1cc2c(c(OC)c1OC)C(=O)C(CSCCCl)=C(O)C2=O` [Compound 34, 3-((2-Chloroethylthio)methyl)-2-hydroxy-5,6,7-trimethoxy-1,4-naphthoquinone] here?
Answer: Its IC50 is > 100 µM.

Question: And the IC50 [2]?
Answer: Its IC50 is > 100 µM.

Question: For `COc1ccc2c(c1O)C(=O)C(O)=C(C)C2=O` [Compound 11, ancistroquinone B], which IC50 ([1]; Homo sapiens, 22Rv1, 48 h, MTT) is on record?
Answer: Its IC50 is > 100 µM.

Question: What about the IC50 [2, 6] of the same compound?
Answer: Its IC50 is > 100 µM.

Question: With `CC(=O)O[C@@H]1O[C@H](CSC2=CC(=O)c3c(O)c(C)c(C)c(O)c3C2=O)[C@@H](OC(C)=O)[C@H](OC(C)=O)[C@H]1OC(C)=O` [SAB-1] as the compound, how does the “increase in activity in PC-3 cells on introduction of the 2-chloroethylthio group” value [5] read?
Answer: The value was 5 fold.

Question: With `CC1=C(O)C(=O)c2c(ccc(O)c2O)C1=O` [Compound 12, dioncoquinone B] as the compound, how does the IC50 ([1]; Homo sapiens, 22Rv1, 48 h, MTT) read?
Answer: Its IC50 is 89.5 ± 24.9 µM.

Question: And the IC50 [2, 6]?
Answer: Its IC50 is > 100 µM.
